Test results published in ChEMBL document CHEMBL1201862, “PubChem BioAssay data set” (2004).
Calls of active or inactive are those of the source.

Experiments:
[1] = SFLLRN-induced P-Selectin Platelet Surface Expression Measured in Cell-Based System Using Flow Cytometry - 2016-03_Inhibitor_Dose_DryPowder_Activity_Set3. [Related pubchem assays (depositor defined):AID1678]; assay type: functional
[2] = blockers of SFLLRN-triggered platelet ATP secretion – cell-based, human platelets, luminescence, dry powder, dose response (AID 493100); assay type: functional
[3] = Luminescence Cell-Based Dose Response Follow up to Identify Inhibitors of Platelet Dense Granule Release. [Related pubchem assays (depositor defined):AID1663, AID1678, AID1889, AID2519]; assay type: functional
[4] = inhibitors of HIV Env-driven cell fusion, dose response, cherry-pick (AID 652057); assay type: functional, cell-based
[5] = ZM109 Env clade C HIV-1 fusion inhibitors, dose response, HeLa effector, CEM target cells, luciferase, cherry-pick (AID 652058); assay type: functional, cell-based
[6] = off-target signal loss in HeLa-CEM21 co-culture – HeLa F-luc CTL cells, cherry-picked, counter-screen for HIV-1 Env fusion inhibitor project, dose response (AID 652040); assay type: functional, cell-based;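 note: potency for signal decrease marking cytotoxic or nonspecific inhibition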
[7] = inhibitors of clade B AD8 Env fusion, dose response, cell-based, cherry-pick (AID 652062); assay type: functional;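 note: luciferase signal from cell-cell fusion driven by HIV-1 clade B AD8 Env; potency is for inhibitors of fusion seen as a drop in luminescence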
HEK293 [8] = experiment: cells; conditions: Homo sapiens
HEK293 [9] = experiment: cells; conditions: Homo sapiens; remark: listed apart in the source
[10] = system: Streptococcus sp. 'group A'; experiment: growth inhibition of control SK(-) GAS strain, dose response, counter-screen for streptokinase expression inhibitor project, luminescence, kanamycin, BacTiterGlo, confirmation (AID 1900); assay type: functional, organism-based
[11] = biological target: Luciferin 4-monooxygenase (Photinus pyralis, UniProt P08659); experiment: Counter Screen for Luciferase-based Assay Positives. [Related pubchem assays: 620, 618, 411 ]
[12] = biological target: T1, Heat shock factor protein 1 (Mus musculus, UniProt P38532); experiment: inhibition of MG132-induced HSE-luciferase signal, confirmation, cell-based, NIH3T3, luminescence, dose retest (AID 2382); assay type: functional;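 note: NIH3T3 fibroblasts with HSF1-driven luciferase reporter stressed by proteasome inhibitor MG132; luminescence from HSF1-driven luciferase expression after 8 hours of MG132 stress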
T1 sequence (P38532 whole entry): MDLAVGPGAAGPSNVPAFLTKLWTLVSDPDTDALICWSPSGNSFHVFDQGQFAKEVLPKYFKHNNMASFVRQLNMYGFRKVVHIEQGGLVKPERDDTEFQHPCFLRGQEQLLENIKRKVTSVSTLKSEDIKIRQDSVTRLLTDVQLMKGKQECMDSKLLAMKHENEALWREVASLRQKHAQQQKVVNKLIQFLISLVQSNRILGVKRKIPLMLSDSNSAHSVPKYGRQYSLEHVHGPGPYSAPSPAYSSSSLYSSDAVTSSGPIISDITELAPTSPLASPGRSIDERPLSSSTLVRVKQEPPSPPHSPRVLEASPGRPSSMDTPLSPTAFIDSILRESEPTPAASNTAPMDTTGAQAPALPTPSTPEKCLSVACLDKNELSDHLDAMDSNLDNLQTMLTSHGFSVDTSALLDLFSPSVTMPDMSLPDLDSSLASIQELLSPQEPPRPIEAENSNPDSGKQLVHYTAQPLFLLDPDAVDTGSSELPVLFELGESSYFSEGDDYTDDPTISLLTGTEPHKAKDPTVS

Streptokinase A = biological target: T2, Streptokinase A (Streptococcus pyogenes serotype M1, UniProt P10520); experiment: S. pyogenes streptokinase expression inhibitors, potency, dose response, plasminogen activation absorbance, OD405 (AID 1914); assay type: functional, Streptococcus pyogenes M1 GAS;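 note: secreted streptokinase activity via plasminogen activation per viability signal from cell pellet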
T2 sequence (P10520 whole entry): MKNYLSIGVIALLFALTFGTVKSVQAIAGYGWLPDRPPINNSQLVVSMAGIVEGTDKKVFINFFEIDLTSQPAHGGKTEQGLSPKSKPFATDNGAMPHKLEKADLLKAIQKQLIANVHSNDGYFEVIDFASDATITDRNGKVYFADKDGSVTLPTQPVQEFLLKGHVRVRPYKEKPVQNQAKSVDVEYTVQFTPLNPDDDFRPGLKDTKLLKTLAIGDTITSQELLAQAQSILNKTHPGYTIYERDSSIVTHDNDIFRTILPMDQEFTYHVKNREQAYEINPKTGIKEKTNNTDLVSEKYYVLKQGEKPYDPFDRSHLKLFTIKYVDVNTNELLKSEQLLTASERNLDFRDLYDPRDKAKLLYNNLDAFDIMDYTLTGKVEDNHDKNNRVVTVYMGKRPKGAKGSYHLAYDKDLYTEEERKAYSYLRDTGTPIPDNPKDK

Estrogen receptor = biological target: T3, Estrogen receptor (Homo sapiens, UniProt P03372);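 note: potency for inhibiting coactivator peptide recruitment to the receptor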
T3 sequence (P03372 whole entry): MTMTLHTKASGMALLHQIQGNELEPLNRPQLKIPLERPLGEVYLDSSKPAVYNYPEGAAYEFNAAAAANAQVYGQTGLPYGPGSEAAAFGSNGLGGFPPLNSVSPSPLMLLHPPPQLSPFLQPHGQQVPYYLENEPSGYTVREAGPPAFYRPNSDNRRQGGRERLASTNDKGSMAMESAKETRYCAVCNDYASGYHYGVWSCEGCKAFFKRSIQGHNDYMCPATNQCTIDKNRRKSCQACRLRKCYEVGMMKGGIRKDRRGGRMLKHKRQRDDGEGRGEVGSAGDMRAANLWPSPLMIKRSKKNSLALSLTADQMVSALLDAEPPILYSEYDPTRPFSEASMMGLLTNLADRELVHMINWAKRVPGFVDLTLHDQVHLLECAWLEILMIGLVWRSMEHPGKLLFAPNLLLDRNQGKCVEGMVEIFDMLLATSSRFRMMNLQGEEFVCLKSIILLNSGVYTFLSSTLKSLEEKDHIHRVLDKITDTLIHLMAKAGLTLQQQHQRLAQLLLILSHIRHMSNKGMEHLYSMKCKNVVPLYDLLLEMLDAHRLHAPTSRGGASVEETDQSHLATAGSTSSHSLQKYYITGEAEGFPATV

[13] = inhibitors of intracellular T. cruzi replication, confirmation, NIH3T3 host cells, beta-gal luminescence (AID 2044); assay type: functional, cell-based;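 note: intracellular parasites grown in NIH/3T3 mouse fibroblasts as host cells; luminescent beta-galactosidase reporter signal from transgenic T. cruzi replicating inside host cells; inhibitors lower the luminescence signal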
[14] = growth suppression of PTEN-null colon cells, dose response, cell-based, HCT116 PTEN knockout (AID 1047); assay type: functional;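 note: HCT116 colon tumor cells with PTEN knocked out; cells exposed to compound for 60 hours before readout; potency for loss of cell viability measured by luminescence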
HT-1080 = experiment: cytotoxicity in HT1080 fibrosarcoma cells, cell-based, fluorescence readout (AID 620); assay type: functional; conditions: Homo sapiens
[15] = cytotoxicity toward NIH3T3 fibroblasts, dose response, counter-screen, cell-based, ATP luminescence, mouse fibroblasts (AID 2010); assay type: functional;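 note: cells exposed to compound for about 90 hours before reading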
[16] = growth suppression of beta-catenin-knockout colon cells, dose response, cell-based, HCT116, human colon tumor (AID 1045); assay type: functional;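 note: HCT116 colon tumor cells with beta catenin knocked out; cells exposed to compound for 60 hours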
Streptococcus = experiment: Group A Streptococcus viability loss, dose response, counter-screen for streptokinase expression inhibitor project, luminescence, BacTiterGlo (AID 1915); assay type: functional, organism-based;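 note: potency for reduction of bacterial viability or growth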
[17] = THP-1 cell cytotoxicity, dose response, cytotoxicity control for non-replicating M. tuberculosis project (AID 489025); assay type: functional
[18] = Vero E6 cell cytotoxicity, dose response, cytotoxicity control for non-replicating M. tuberculosis project, secondary assay (AID 492998); assay type: functional, VeroE6; conditions: Vero C1008
[19] = cytotoxicity in HEK-293T cells, dose response, cytotoxicity control for TCR NF-kB inhibitor project, luminescence, T-cell screen hits (AID 489026); assay type: functional, cell-based;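 note: cells exposed to compound about 14 hours before the viability readout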
[20] = biological target: T4, Microphthalmia-associated transcription factor (Homo sapiens, UniProt O75030); experiment: TRPM1 promoter luciferase signal decrease, dose response, MITF inhibitor project, cell-based, SK-MEL-5, cherry-picked, set 3 (AID 493073); assay type: functional
T4 sequence (O75030 whole entry): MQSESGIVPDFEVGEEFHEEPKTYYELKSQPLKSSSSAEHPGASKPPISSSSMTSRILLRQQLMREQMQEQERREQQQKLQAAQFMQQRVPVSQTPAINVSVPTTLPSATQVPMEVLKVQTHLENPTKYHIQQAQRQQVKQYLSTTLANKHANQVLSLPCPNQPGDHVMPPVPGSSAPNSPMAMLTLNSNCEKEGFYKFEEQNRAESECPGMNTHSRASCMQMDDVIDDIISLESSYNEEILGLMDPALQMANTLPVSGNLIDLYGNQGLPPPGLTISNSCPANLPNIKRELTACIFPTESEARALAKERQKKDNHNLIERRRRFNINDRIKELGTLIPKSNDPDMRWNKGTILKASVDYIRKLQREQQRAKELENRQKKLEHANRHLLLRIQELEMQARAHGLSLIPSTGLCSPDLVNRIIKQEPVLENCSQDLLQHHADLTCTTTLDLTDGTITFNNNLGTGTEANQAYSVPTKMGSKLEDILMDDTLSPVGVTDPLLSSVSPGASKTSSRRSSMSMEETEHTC

cells = assay type: functional
Cytochrome P450 2C19 = Cytochrome P450 2C19 (Homo sapiens, UniProt P33261); experiment: Cytochrome panel assay with activity outcomes. Panel member name: p450-cyp2c19 Compounds with AC50 equal or less than 10 uM are considered active; assay type: functional; conditions: read-out: AC50
H4 [21] = experiment: inhibitors of control reporter signal in H4 cells – cell-based, plate reader, dry powder samples, counter-screen for prion reporter project, dose response (AID 540255); assay type: functional; conditions: Homo sapiens
H4 [22] = experiment: Amyloid Precursor 5' UTR neuroblastoma cell reporter line Measured in Cell-Based System Using Plate Reader - 2078-04_Inhibitor_Dose_DryPowder_Activity. [Related pubchem assays (depositor defined):AID488894]; assay type: functional; conditions: Homo sapiens
H4 [23] = experiment: Inhibitors of Prion Protein 5' UTR mRNA Measured in Cell-Based System Using Plate Reader - 2078-01_Inhibitor_Dose_DryPowder_Activity. [Related pubchem assays (depositor defined):AID488894]; assay type: functional; conditions: Homo sapiens
Cytochrome P450 2D6 = Cytochrome P450 2D6 (Homo sapiens, UniProt P10635);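 note: CYP2D6 member of a cytochrome P450 panel assay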
Sequence of Cytochrome P450 2D6 (P10635 whole entry): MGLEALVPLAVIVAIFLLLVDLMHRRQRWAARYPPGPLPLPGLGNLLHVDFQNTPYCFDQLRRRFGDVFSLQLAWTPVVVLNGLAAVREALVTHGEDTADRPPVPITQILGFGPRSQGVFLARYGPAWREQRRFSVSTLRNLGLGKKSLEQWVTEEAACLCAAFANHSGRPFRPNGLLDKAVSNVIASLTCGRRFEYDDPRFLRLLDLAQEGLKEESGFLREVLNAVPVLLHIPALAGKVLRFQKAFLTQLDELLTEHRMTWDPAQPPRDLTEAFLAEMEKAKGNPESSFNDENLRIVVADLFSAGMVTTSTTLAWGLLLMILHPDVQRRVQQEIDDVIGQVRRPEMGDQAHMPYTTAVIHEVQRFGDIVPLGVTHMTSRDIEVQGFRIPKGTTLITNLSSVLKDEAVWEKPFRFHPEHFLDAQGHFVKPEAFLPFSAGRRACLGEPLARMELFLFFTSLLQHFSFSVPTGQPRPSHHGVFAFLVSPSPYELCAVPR

Sequence of Luciferin 4-monooxygenase (P08659 whole entry): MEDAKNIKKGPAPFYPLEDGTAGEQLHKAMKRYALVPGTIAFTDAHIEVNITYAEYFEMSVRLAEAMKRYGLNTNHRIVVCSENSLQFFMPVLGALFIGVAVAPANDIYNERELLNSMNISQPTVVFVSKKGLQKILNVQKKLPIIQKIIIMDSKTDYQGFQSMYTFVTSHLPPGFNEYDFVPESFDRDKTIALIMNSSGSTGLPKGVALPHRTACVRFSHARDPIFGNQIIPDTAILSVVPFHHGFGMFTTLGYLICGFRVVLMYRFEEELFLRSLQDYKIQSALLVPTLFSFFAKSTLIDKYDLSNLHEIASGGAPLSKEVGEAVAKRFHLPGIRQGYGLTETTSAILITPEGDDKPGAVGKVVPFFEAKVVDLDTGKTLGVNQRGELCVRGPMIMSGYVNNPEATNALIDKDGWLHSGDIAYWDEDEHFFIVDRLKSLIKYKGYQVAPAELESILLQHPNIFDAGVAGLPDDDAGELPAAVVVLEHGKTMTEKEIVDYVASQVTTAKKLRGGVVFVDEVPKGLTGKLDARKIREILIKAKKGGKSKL
Sequence of Cytochrome P450 2C19 (P33261 whole entry): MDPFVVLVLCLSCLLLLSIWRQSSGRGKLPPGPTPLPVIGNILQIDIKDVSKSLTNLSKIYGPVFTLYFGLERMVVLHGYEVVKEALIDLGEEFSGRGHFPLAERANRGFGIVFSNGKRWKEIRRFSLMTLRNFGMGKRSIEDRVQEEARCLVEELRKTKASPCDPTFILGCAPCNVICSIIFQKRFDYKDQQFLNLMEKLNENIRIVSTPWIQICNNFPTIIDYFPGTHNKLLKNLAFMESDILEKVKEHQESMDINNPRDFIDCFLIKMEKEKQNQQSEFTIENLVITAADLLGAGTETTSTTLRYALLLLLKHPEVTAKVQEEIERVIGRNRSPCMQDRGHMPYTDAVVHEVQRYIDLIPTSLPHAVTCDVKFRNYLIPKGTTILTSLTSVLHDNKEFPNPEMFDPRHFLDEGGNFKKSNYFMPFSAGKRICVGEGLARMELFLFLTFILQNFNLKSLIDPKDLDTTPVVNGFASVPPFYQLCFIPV

COc1ccc(C(=O)Nc2cccc(NC(C)=O)c2)cc1
AC50 [1]: 3.53 µM (active) | AC50 [2]: 12.8 µM (active) | EC50 [3]: 3.96 µM (active)

COc1ccc(Cl)cc1CC1(C)C(=O)Nc2ccc(S(=O)(=O)NC3CCCCC3)cc21 (stereo not given)
AC50 [4]: 0.749 µM (active) | AC50 [5]: 0.768 µM (active) | AC50 [6]: 1.07 µM (active) | AC50 [7]: 3.04 µM (active) | EC50 (HEK293 [8]): > 59.6 µM (inactive) | EC50 (HEK293 [9]): > 59.6 µM (inactive)

Cc1ccc(C(=O)N/N=C/c2ccc([N+](=O)[O-])s2)cc1
EC50 [10]: 5.16 µM (active) | EC50 [11]: 3.5 µM (active) | EC50 [12]: 0.324 µM (active) | EC50 (Streptokinase A): > 150 µM (not active) | IC50 (Estrogen receptor): 21.1 µM (active) | EC50 [13]: 0.72 µM (active) | EC50 [14]: 3.05 µM (active) | EC50 (HT-1080): > 50 µM (not active) | EC50 [15]: > 30 µM (not active) | EC50 [16]: 3.5 µM (active) | EC50 (Streptococcus): 14.3 µM (active) | CC50 [17]: 12.2 µM (active) | CC50 [18]: 11.5 µM (active) | IC50 [19]: > 80 µM (inactive) | AC50 [20]: 2.2 µM (active) | IC50 (cells): 5.2 µM (active) | AC50 (Cytochrome P450 2C19): 39.8 µM (inconclusive) | AC50 (H4 [21]): 3.18 µM (active) | AC50 (H4 [22]): 3 µM (active) | AC50 (H4 [23]): 0.875 µM (active) | AC50 (Cytochrome P450 2D6): 15.8 µM (inconclusive)
